# Assay results as given in ChEMBL document CHEMBL1143875, “Synthesis and structure-activity relationships of thiadiazole-derivatives as potent and orally active peroxisome proliferator-activated receptors alpha/delta dual agonists” (Bioorg Med Chem, 2008).
# Key:
# [1] = Half life in Beagle dog at 0.3 mg/kg administered as multiple dose after 7 days; format: ADME, organism-based, Canis lupus familiaris; set-up: dose 0.3 mg/kg; conditions: in vivo
# [2] = molecular target: T1, Peroxisome proliferator-activated receptor alpha (Homo sapiens) (UniProt Q07869); assay: Agonist activity at human PPARalpha-Gal4 in HEK293 cells by luciferase reporter assay relative to (S)-2-{2-[1-ethyl-3-(4-trifluoro-methoxyphenyl)ureido]indan-5-ylsulfanyl}-2-methylpropionic acid; format: functional, cell-based
# T1 sequence (whole entry): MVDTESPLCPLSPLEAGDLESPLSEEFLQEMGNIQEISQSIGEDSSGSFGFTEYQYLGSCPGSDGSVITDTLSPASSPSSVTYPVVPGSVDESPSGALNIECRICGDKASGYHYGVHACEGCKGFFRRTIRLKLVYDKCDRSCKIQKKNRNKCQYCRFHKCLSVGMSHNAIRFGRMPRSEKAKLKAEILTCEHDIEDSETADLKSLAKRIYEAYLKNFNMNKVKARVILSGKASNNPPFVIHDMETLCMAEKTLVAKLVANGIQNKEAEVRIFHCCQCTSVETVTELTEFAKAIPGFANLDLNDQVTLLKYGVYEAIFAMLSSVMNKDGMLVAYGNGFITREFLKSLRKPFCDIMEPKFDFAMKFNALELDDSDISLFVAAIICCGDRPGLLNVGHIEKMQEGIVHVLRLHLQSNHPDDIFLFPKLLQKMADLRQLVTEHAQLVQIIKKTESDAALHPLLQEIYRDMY
# Mus musculus = assay: […] effect of ob/ob C57BL/6J-leptin deficient obese mouse assessed as increase in liver weight at 0.1 to 3 mg/kg, po after 11 days; format: functional; conditions: dose mg/kg 0.1-3
# [3] = AUC in ob/ob C57BL/6J-leptin deficient obese mouse at 3 mg/kg administered as multiple dose after 11 days; format: ADME, organism-based; set-up: dose 3 mg/kg; conditions: plasma
# [4] = Cmax in ob/ob C57BL/6J-leptin deficient obese mouse at 1 mg/kg administered as multiple dose after 11 days; format: ADME, organism-based; set-up: dose 1 mg/kg; conditions: in vivo
# [5] = Induction of Pa9 gene expression in human skeletal muscle cells at 1 nM by RT-PCR; format: functional
# [6] = Half life in ob/ob C57BL/6J-leptin deficient obese mouse at 3 mg/kg administered as single dose on day 11; format: ADME, organism-based; set-up: dose 3 mg/kg; conditions: in vivo
smiles,measurement,setting,value
Cc1cc(SCc2nc(-c3ccc(Cl)c(Cl)c3)ns2)ccc1OC(C)(C)C(=O)O,half-life,[1],6.5 h
same,Efficacy,[2],56%
same,Activity,Mus musculus,65%
same,AUC at 264 h,[3],249 µg·h/mL
same,Cmax,[4],6830 ng/mL
same,Fold change,[5],3.8
same,half-life,[6],5.1 h
